“Also recorded” adds a separate entry of the source. Read-outs that look alike come from different tables or passages of the source.
Key:
[1] = Phase II single oral dose pharmacokinetics in male patients with ED; assay type: in vivo; settings: human, plasma, 10 mg single oral dose; for Tmax: male, po, 10 mg
Procedure: The study was an exploratory Phase II, randomised, placebo-controlled, double-blind, crossover study, investigating the effects of a single oral dose of IP2015 on erectile function in males with ED. A dose level of 10 mg was selected. Patients were enrolled into two cohorts. Both cohorts participated in two periods (Period 1 and Period 2) and received a single dose of IP2015 and a single dose of placebo.
The IP2015 at a dose of 10 mg or matched placebo was administered once on the morning of Day 1 (in Period 1 and Period 2) as an oral solution in the fasted state. The dose was taken with 240 ml of water at room temperature. Subjects/patients were fasted overnight prior to dosing until 4 hours postdose. Water was allowed ad libitum except for 1 hour before and 1 hour after dosing.
The study also evaluated the plasma PK concentrations and parameters including but not limited to; AUC0-t, AUC0-∞, Cmax, tmax and T½ in male patients with ED. Blood samples for the determination of plasma concentrations of IP2015 were collected at predose, and 1, 4, 8 (post-stimulus challenge), and 24 hours postdose in each treatment period. The exploratory endpoint was the possible relationship between plasma PK levels and PD response as measured by RigiScan data.
Plasma samples for the determination of concentrations of IP2015 were analysed by using a validated liquid chromatography-tandem mass spectrometry method. The RigiScan Plus Monitor was used for efficacy during the stimulus challenge.
(§1) Safety parameters were listed and summarised using descriptive statistics. Pharmacokinetic parameter estimates were calculated using noncompartmental methods. Pharmacokinetic data were listed for each subject/patient and summarised by descriptive statistics.

healthy male subjects = assay: Phase I ascending single oral dose safety and tolerability in healthy male subjects; assay type: in vivo, human
Procedure: The study was a Phase I, randomised, double-blind, placebo-controlled, ascending single oral dose, safety, tolerability, pharmacokinetic (PK) and pharmacodynamics (PD) study of IP2015 in healthy male subjects.
Each subject received one oral dose of IP2015 or matched placebo. The starting dose of IP2015 was 0.01 mg in Cohort 1. The dose level was to be escalated to a maximum of 0.05 mg in Cohort 2 and a maximum of 0.2 mg in Cohort 3. The doses in the remaining five cohorts were to be determined based on the dose escalation criteria. In every cohort, no more than 2 subjects were dosed on the first dosing day (1 active; 1 placebo) such that no more than 1 subject received an active IP2015 dose for the first time at each dose level.
The doses used in each cohort were as follows: • Cohort 1-0.01 mg • Cohort 2-0.05 mg • Cohort 3-0.2 mg • Cohort 4-0.6 mg • Cohort 5-1.8 mg • Cohort 6-5.4 mg • Cohort 7-16.2 mg • Cohort 8-10 mg
The study evaluated the clinical safety data from adverse event (AE) reporting, 12-lead electrocardiogram (ECG), cardiac telemetry, vital signs (standing and supine blood pressure (BP), heart rate (HR), oral temperature and clinical laboratory evaluations (chemistry, haematology, urinalysis) and physical examinations in healthy male subjects.
as §1

[2] = Plasma concentrations after repeat single oral doses in male subjects with ED; assay type: in vivo, human; settings: 5 mg and 10 mg; Week 1 and Week 4
Procedure: (§2) On Day-7, and at the Week 1 (Day 1), Week 2, Week 3, Week 4 and Follow-up visits, all groups were asked to complete the IIEF-15 questionnaire. Group 2 was asked to complete a Visual Stimulation Assessment using a RigiScan Plus Monitor on Day-7, Week 1 (Day 1) and Week 4. Group 2 was also required to provide blood samples for pharmacokinetic assessment on Week 1 (Day 1) and Week 4. Group 3 was required to provide semen samples on Day-7 and Week 4.
(§3) Efficacy was assessed through the International Index of Erectile Function (IIEF)-15 questionnaire. The change from baseline in responses to questions of the IIEF-15 questionnaire, including questions regarding erectile function, orgasmic function, sexual desire, intercourse satisfaction and overall satisfaction domain scores, was determined at different time points of the study. RigiScan assessments during the stimulus assessment, and sperm count and motility by semen sample collection was used for efficacy evaluation. Safety was assessed through AE reporting, 12-lead ECG, vital signs, physical examinations and clinical laboratory evaluations. Pharmacokinetics was assessed by blood sampling.

[3] = test system: male subjects with erectile dysfunction (ED); assay: IIEF-15 questionnaire after repeat single oral doses in male subjects with ED; assay type: in vivo, human
Text: The international index of erectile function (IIEF-15) questionnaire is a validated, multi-dimensional, self-administered investigation that has been found useful in the clinical assessment of erectile dysfunction and treatment outcomes in clinical trials. A score of 0-5 is awarded to each of the 15 questions that examine the main domains of male sexual function: erectile function, orgasmic function, sexual desire and intercourse satisfaction.
130 subjects were divided into 3 groups upon which the study was conducted in parallel. Each subject was dosed on four occasions with either 5 mg IP2015, 10 mg IP2015 or matched placebo. In each group, subjects were randomised evenly to each of the three study treatments and received the same treatment at each visit.
The study lasted approximately 8 weeks and consisted of the following: • A screening visit (up to 21 days prior to the baseline visit) • A baseline visit (Day −7). • Outpatient visits on Week 1 (Day 1), Week 2, Week 3 and Week 4 • A follow-up visit a minimum of 7 to 10 days after their final dose.
as §2
There were three potential study treatments of 5 mg IP2015, 10 mg IP2015 or matched placebo. In each group, subjects were randomised evenly to each of the three study treatments and received the same treatment on each visit. IP2015 or matched placebo was administered once in the morning of Week 1 (Day 1), Week 2, Week 3, and Week 4 as an oral solution in the fasted state. The dose was taken with 240 ml of water at room temperature. Subjects had fasted 2 hours prior to dosing until 4 hours postdose. Water was allowed ad libitum except for 1 hour before and 1 hour after dosing.
as §3
The results are means±SE. The statistical differences were performed with Mixed Model Repeated Measures (MMRM).

`COc1cc2ccc(OC3CC4CCC(C3)N4)cc2oc1=O` (centres unmarked) [IP2015, 7-[(8-azabicyclo[3.2.1]octan-3-yl)oxy]-3-methoxy-chromen-2-one] gave a Cmax [1] of 15.7 ng/mL, an AUC(0-t) ([1]; read-out: mean AUC0-t) of 287 ng·h/mL and a Tmax ([1]; read-out: median tmax) of 4 h. The Tmax ([1]; read-out: tmax range) was 1 to 8.53 h, the “incidence of TEAEs” value (healthy male subjects; 0.01 mg to 10 mg dose range) was “lower incidence of treatment-emergent adverse effects (TEAEs) compared to higher doses; also recorded: relatively low; also recorded: lower side effects than doses of 16.2 mg” and the “mean ECG parameters” value (healthy male subjects; 0.01 mg to 10 mg dose range) was “no significant treatment- or dose-related trends”. The vital sign values (healthy male subjects; 0.01 mg to 10 mg dose range) was “no significant treatment- or dose-related trends”, the “subjects with sustained tachycardia for several hours” value (healthy male subjects; 16.2 mg) was 2 and the “incidence of side effects” value (healthy male subjects; 16.2 mg compared to 0.01 mg to 10 mg) was “increased at 16.2 mg compared to the 0.01 mg to 10 mg dose range”. The “subjects reporting at least one TEAE” value (healthy male subjects; 16.2 mg dose group (all subjects)) was 4, the standing pulse rate (healthy male subjects; 16.2 mg, 2, 3, 4, 6, 8, 10 and 12 hours postdose) was “increases from baseline” and the supine pulse rate (healthy male subjects; 16.2 mg, 6, 8 and 10 hours postdose) was “increases from baseline”. For the same molecule, the “heart rate (ECG)” value (healthy male subjects; 16.2 mg, 8 and 12 hours postdose) was “increases from baseline”, the “haematology, serum biochemistry or urinalysis data” value (healthy male subjects; healthy males, single oral doses) was “no significant treatment- or dose-related trends” and the “total TEAEs” value (healthy male subjects; in the 40 subjects who received IP2015, 0.01-16.2 mg) was 32. The “subjects experiencing TEAEs” value (healthy male subjects; of the 40 subjects who received IP2015, 0.01-16.2 mg) was 16, the “discontinuation due to a TEAE” value (healthy male subjects; whole Phase I study) was “no subjects discontinued due to a TEAE” and the “severity of TEAEs” value (healthy male subjects; whole Phase I study) was “majority of events were mild in severity”. The “relation of plasma concentrations to dose” value [2] was “linear relation of plasma concentrations to dose”, the “efficacy in treating erectile dysfunction” value ([3]; 5 mg individual doses, human subjects, compared to placebo) was “effective in the treatment of erectile dysfunction; also recorded: effective in treating erectile dysfunction” and the “overall response to questions of IIEF-15 versus baseline” value ([3]; 5 mg, at follow-up, p=0.0046) was “significant”. For the same molecule, the “overall response to questions of IIEF-15 versus placebo” value ([3]; 5 mg, at follow-up, p=0.07) was “tendency”, the “IIEF-15 overall score versus baseline” value ([3]; 5 mg, p=0.0032) was “the same was the case” and the “IIEF-15 Q4 (ability to maintain erection), overall score versus baseline” value ([3]; 5 mg, p=0.056) was “tendency to difference”. For the same molecule, the “IIEF-15 overall score versus placebo” value ([3]; 5 mg, p=0.10) was “tendency”, the “IIEF-15 Q4, overall score compared to placebo” value ([3]; 5 mg, p=0.44) was “no difference” and the “IIEF-15 Q3, overall score” value ([3]; 5 mg, versus placebo (p=0.07) and versus baseline (p=0.07)) was “tendency to difference”. For the same molecule, the “IIEF-15 Q3 (ability to penetrate), change from baseline” value ([3]; 5 mg, week 3, versus placebo (p=0.034) and versus baseline (p=0.046)) was “significant effect” and the “overall IIEF-15 score change” value ([3]; low dose of IP2015, clinically significant) was 2.
